Earlier results, collected in US20050175959A1, “System for the controlled delivery of an active material to a dental site” (Coll Partners Ltd., priority 2000, published 2005).

Conditions: in vivo

In the case of `F` [fluoride], the “acute lethal dose of fluoride (F)” value is given as 33 mg F/Kg body weight and the chronic toxicity is given as 0.1 mg F/Kg.
